We go through two compounds from patent publication US20100189813A1, “Cidal formulations and methods of use” (priority 2006, published 2010).

Experiment [1] has as its system aerial bacteria. The experiment in a line: Agar growth media plates left open to the atmosphere for 6 hours (disinfectant efficacy), bacteria. Type of experiment: cell-based. The note with it: copper sulphate at 5%; plates open 6 hours. As for the experimental part:
(§1) 1. The Unformulated composition containing 5 weight percent of copper sulphate in an inert carrier was added directly to growth media, namely, Agar, in order to evaluate it's efficacy as a disinfectant. 2. The same solution was added to bacteria and its growth was monitored by optical density readings as a function of time. 3. The same solution alone or in combination with a detergent was added to bacteria or fungi and incubated for 10 minutes or 60 minutes and the incubation mix was plated on to agar growth media in order to estimate survival.
(§2) a. The Unformulated composition at different concentrations was added to live bacterial agar media and the agar plates were exposed to the atmosphere by keeping the Petri plates open to the atmosphere for 6 hours. By doing this it was expected to allow aerial bacteria to grow in the plates.
(§3) Control plates without the Unformulated composition contained confluent colonies of bacteria (infinite) and fungi.

The subject of experiment [2] is Anopheles mosquitoes. The experiment can be described thus: Anopheles mosquito larvae survivorship on exposure to copper. Type of experiment: in vivo. The text has this:
A solution in water of copper sulphate pentahydrate at 5 weight percent was used to treat Anopheles mosquitoes. The mosquitoes were wild caught and they were not separated by larval stage so there is some variability in the response to the test. The data is based upon 1000 larvae per treatment. Amounts of copper were used at 0.37 ppm, 0.88 ppm, 1.47 ppm, and 8.4 ppm. […] The Y-axis is the percentage of survivorship and the X-axis is the number of days of exposure.
The tests were repeated wherein a copper compound in inert carrier was treated with a detergent as an additive to determine if the additive increased the efficacy of the copper. […] The first control is FIG. 2, Stage 1 larvae, the duplicate control, Stage 1 larvae, is FIG. 3 wherein, in both Figures, the Y-axis is the percentage of survivorship and the X-axis is the number of days of exposure.
Kathon was added at 0.02 weight percent. […] The Y-axis is the percentage of survivorship and the X-axis is the number of days of exposure.
The copper was used at the 0.25 ppm level. […] The Y-axis is the percentage of survivorship and the X-axis is the number of days of exposure.

Experiment [3] has as its system fungi. The experiment in a line: Agar growth media plates left open to the atmosphere for 6 hours (disinfectant efficacy), fungi. It is filed as cell-based. The note with it: copper sulphate at 5%; plates open 6 hours. As for the experimental part:
as §1, §2, §3

For experiment [4], the system named is E. Coli bacteria. The experiment in a line: Incubation for 10 or 60 minutes, then plating on agar to estimate survival, bacteria. It is filed as cell-based. The note with it: detergent alone. As for the experimental part: Three different types of experiments were conducted in order to assess the efficacy of an inventive solution on E. Coli bacteria and fungi.
as §1
c. Bacteria with the Unformulated composition was incubated for 10 minutes or 60 minutes before plating them. […] Because of the closeness of the data points, the inventors herein would point out that the top line is the control, the next set of lines lower are constituted of 0.1, 0.2, 0.3, 0.4, 0.5 of ET and 1 ml Matrix, while the bottom set of lines are constituted of 2 ml Matrix, 3 ml Matrix, 3 ml Matrix, 4 ml Matrix, and 5 ml of Matrix.
4. The effect of adding detergents, that is, sodium dodecyl sulfate to the Unformulated composition.
The detergent alone allowed growth up to a concentration of 0.2%. […]

Where only a bound is given, the exact number is not on record here.

Turning to `O.O.O.O.O.O=S(=O)([O-])[O-].[Cu+2]` [copper sulphate pentahydrate], in experiment [1], the “bacterial growth on plates” value is “allowed bacterial growth”. Besides, the survivorship in experiment [2] (0.37 ppm copper, wild caught larvae not separated by larval stage, 1000 larvae per treatment) is recorded as about 100%. Further, the no-effect dose in experiment [2] (copper, first part of the experiment, no detergent) stood at 0.37 ppm. Further, in experiment [2] (more than 0.8 ppm copper (0.88, 1.47, 8.4 ppm tested), by day 3, wild caught larvae), the death of larvae result is “died by day 3”. Moreover, the “fungal growth on plates” value in experiment [3] was “allowed no fungal growth”.
For the compound `CCCCCCCCCCCCOS(=O)(=O)[O-].[Na+]` [sodium dodecyl sulfate], the “concentration at which bacterial growth was still allowed” value in experiment [4] was at most 0.2%.
